Experimental data as given in PMC9024523, “Phenoxyaromatic Acid Analogues as Novel Radiotherapy Sensitizers: Design, Synthesis and Biological Evaluation” (Molecules, 2022).
“And” between values parts separate entries of the source, which are not always exact repeats. Identical values can stand only once. “Also recorded” adds a separate entry of the source.

Key:
mouse red blood cells = test: In vitro red blood cell-based assay (oxygen equilibrium curve, Softron analyzer); settings: final effector concentration 2 mM, mean ± SD; for P50/P50C: P50C = control with 1% DMSO; for P50: 1% DMSO; for P50 / ∆P50: mouse red blood cells; for ∆P50: ∆P50 = P50 − P50C
Text: In the first stage of our research, three series of analogues were designed and synthesized to explore refinement of the hydrophobic parts of 19f, 19m, 24a and 24b; hinge areas of 18g, 19b and 19y; and tail regions of 15c, 15d and 16c, respectively. We used the Softron Analyzer to evaluate the effect of these compounds on the half-blood oxygen saturation(P50) value of red blood cells. The most promising phenoxyaromatic acid compound, efaproxiral, was used as a positive control. […] The results reminded us that the modification of the hydrophobic part or linker extension is beneficial to improve an allosteric effect.
Eight-week-old female C57BL6J mice were purchased from Beijing Vital River Laboratory Animal Technology Co., Ltd. A total of 540 μL mouse blood was added into the 1.5 mL centrifuge tube, followed by adding 60 μL 3.8% sodium citrate. The mixture was then centrifuged at 1500 rpm for 10 min, the supernatant was carefully aspirated, and the cells were washed three times with PBS solution. After mixing packed red blood cells with Alsever’s solution in a ratio of 1:1, a blood gas analyzer (RADIOMETER ABL 90) was used to analyze the red blood cell density and hemoglobin concentration.
All of the compounds were prepared as 200 mM stock solutions in DMSO. Oxygen equilibrium measurements were performed with the Softron analyzer (Softron Medical Products, Beijing, China) using mouse red blood cells. The samples were prepared by adding 3 mg hemoglobin equivalent of red blood cells into 3.92 mL loading buffer (100 mM NaCl, 50 mM bis-Tris at pH 7.2 and 25 °C), followed by 20 μL 10% Dimethicone as a defoamer and 20 μL 20% BSA. Afterwards, 40 μL stock solution was added, and the mixture was loaded to the sample cell and fully deoxygenated by blowing into nitrogen at 37 °C for 15 min. Then, the oxygen equilibrium curve was recorded by blowing into oxygen.

[1] = tested on: luciferase-labeled U87MG implanted into Balb/c nude mice brains; test: In vivo radiosensitization on orthotopically transplanted GB; parameters: species or system mouse; settings: 150 mg/kg ip combined with IR
Experimental: In order to evaluate in vivo antitumor effects, luciferase-labeled U87MG was implanted into Balb/c nude mice brains. A small animal bioluminescence imaging system was applied to trace the tumor formation and dynamic changes in GB size. Cobalt 60 was used for fractionated-dose whole-brain irradiation therapy (IR). The tumor was irradiated with a total dose of 12 Gy in four fractions of 3 Gy at a dose rate of 0.3 Gy/min. Efaproxiral or 19c was administrated at a dosage of 150 mg/kg by intraperitoneal injection (ip) every four days over a period of sixteen days. IR was conducted 15 min after ip.
Four-week-old female BALB/c nude mice were purchased from Beijing Vital River Laboratory Animal Technology Co., Ltd. Animals were monitored daily by certified veterinary staff and laboratory personnel. All mice used in this study were maintained in a pathogen-free barrier animal facility. The study was in compliance with all relevant ethical regulations regarding animal research. All animal experiments were approved by the Institutional Animal Care and Use Committee at the Beijing Institute of Basic Medical Sciences. The U87-luc cells were processed and resuspended into basal medium at a concentration of 10^7 cells/mL. Next, 8 × 10^5 U87-luc glioma cells were implanted into the right frontal lobes of each nude mouse. Ten days after tumor implantation, tumor-bearing mice were randomly divided into six groups according to the tumor size and subjected to the indicated treatment (n = 6). Administration of drugs (150mg/kg) or vehicle was performed once every 4 days four consecutive times by intraperitoneal injection. All radiation treatments were performed 25 min after the drug or vehicle was given. Tumors on the brains of mice were irradiated at a dosage of 3 Gy four consecutive times using a ^60Co γ irradiator. The dose rate was 0.3 Gy/min. The bodies of the mice were shielded using lead blocks. The tumor progress was tracked by a small animal live bioluminescence imaging system (LB983NC100U, Germany).

HEK293 cells = test: Cell Titer-Glo cytotoxicity assay, HEK293; assay type: cell-based
Experimental: (§1) For further in vivo evaluation of newly synthesized compounds, 19c and 19t were selected as candidates. Hemoglobin allosteric effectors require a relatively high blood concentration to be effective. Cytotoxicity evaluation was conducted out of consideration for medication safety. HEK293 and U87MG cells were used to evaluate the cytotoxicity.
(§2) Luciferase-transfected human glioma cells (U87-luc) and HEK293 cells were kindly provided by Dr. Nie and cultured in Dulbecco’s Modified Eagle Medium (CM10013, MacGene) with 10% fetal bovine serum (1966173C, Gibco) and 1% penicillin-streptomycin in a humidified atmosphere of 5% CO2 at 37 °C.
(§3) Cells were plated in a 96-well plate at a density of 2000 cells/well and then treated with 19c or 19t at gradient concentrations of 10^1, 10^2, 10^3, 10^4, 10^5, 10^6and 10^7 nM. Compounds 19c and 19t were prepared as the sodium salt by adding saturated sodium bicarbonate in the process of stock solution preparation. Cell viability was evaluated on the indicated days after treatment with a Cell Titer-Glo Luminescent Cell Viability Assay kit (G7572, Promega, Madison, WI, USA) according to the manufacturer’s instructions. All data were normalized to those on day 0 and presented as the mean ± standard deviation (SD).

U87MG cells = test: Cell Titer-Glo cytotoxicity assay, U87MG; assay type: cell-based, human
Experimental: as §1, §2, §3

Compound	P50/P50C (mouse red blood cells)	P50 (mouse red blood cells) [mmHg]	∆P50 (mouse red blood cells)	other results
CCN(CC)c1ccc(NC(=O)Cc2ccc(OC(C)(C)C(=O)O)cc2)cc1 [19r, 2-(4-(2-((4-(diethylamino)phenyl)amino)-2-oxoethyl)phenoxy)-2-methylpropanoic acid]	1.57 ± 0.02	65.81 ± 6.64	23.97 ± 1.82 mmHg	–
COc1ccc(NC(=O)Cc2ccc(OC(C)(C)C(=O)O)cc2)cc1 [19s, 2-(4-(2-((4-methoxyphenyl)amino)-2-oxoethyl)phenoxy)-2-methylpropanoic acid]	1.45 ± 0.01	71.87 ± 0.64	22.29 ± 0.64 mmHg	–
CC(C)(Oc1ccc(/C=C/C(=O)Nc2cc(Cl)cc(Br)c2)cc1)C(=O)O [19w, (E)-2-(4-(3-((3-bromo-5-chlorophenyl)amino)-3-oxoprop-1-en-1-yl)phenoxy)-2-methylpropanoic acid]	1.50 ± 0.08	56.76 ± 2.93	18.85 ± 2.93 mmHg	–
C=CCN(CC=C)C(=O)Cc1ccc(OC(C)(C)C(=O)O)cc1 [24a, 2-(4-(2-(diallylamino)-2-oxoethyl)phenoxy)-2-methylpropanoic acid]	1.25 ± 0.21	55.80 ± 18.99	11.80 ± 11.11 mmHg	–
CC1Cc2ccccc2N1C(=O)Cc1ccc(OC(C)(C)C(=O)O)cc1 (centres unmarked) [24b, 2-methyl-2-(4-(2-(2-methylindolin-1-yl)-2-oxoethyl)phenoxy)propanoic acid]	1.46 ± 0.12	66.26 ± 5.30	21.02 ± 5.30 mmHg	–
CC(C)(Oc1ccc(CC(=O)Nc2ccc3c(c2)OCO3)cc1)C(=O)O [24c, 2-(4-(2-(benzo[d][1,3]dioxol-5-ylamino)-2-oxoethyl)phenoxy)-2-methylpropanoic acid]	1.58 ± 0.01	69.62 ± 12.16	25.61 ± 4.27 mmHg	–
CC(C)(Oc1ccc(CC(=O)Nc2ccc3ccccc3c2)cc1)C(=O)O [24d, 2-methyl-2-(4-(2-(naphthalen-2-ylamino)-2-oxoethyl)phenoxy)propanoic acid]	1.93 ± 0.01	79.50 ± 0.47	38.31 mmHg and 38.31 ± 0.47 mmHg	–
CC(C)(Oc1ccc(CC(=O)NC(c2ccccc2)c2ccccc2)cc1)C(=O)O [24e, 2-(4-(2-(benzhydrylamino)-2-oxoethyl)phenoxy)-2-methylpropanoic acid]	1.33 ± 0.24	59.61 ± 20.96	15.61 ± 13.07 mmHg	–
CC(C)(Oc1ccc(CC(=O)N(Cc2ccccc2)Cc2ccccc2)cc1)C(=O)O [24f, 2-(4-(2-(dibenzylamino)-2-oxoethyl)phenoxy)-2-methylpropanoic acid]	1.23 ± 0.12	54.51 ± 14.91	10.51 ± 7.02 mmHg	–
CCCCCCNC(=O)Cc1ccc(OC(C)(C)C(=O)O)cc1 [24g, 2-(4-(2-(hexylamino)-2-oxoethyl)phenoxy)-2-methylpropanoic acid]	1.10 ± 0.04	46.17 ± 7.11	4.34 ± 2.30 mmHg	–
CNC(=O)Cc1ccc(OC(C)(C)C(=O)O)cc1 [24h, 2-methyl-2-(4-(2-(methylamino)-2-oxoethyl)phenoxy)propanoic acid]	1.40 ± 0.11	58.11 ± 1.93	16.27 ± 2.88 mmHg	–
Cc1cc(C)cc(NC(=O)Cc2ccc(OC(C)(C)C(=O)O)cc2)c1 [Efaproxiral, 2-(4-(2-((3,5-dimethylphenyl)amino)-2-oxoethyl)phenoxy)-2-methylpropanoic acid, reference compound]	1.79 ± 0.02	82.50 ± 1.01	36.40 mmHg	∆P50 (mouse red blood cells; listed as Efaproxiral ( 19a )): 36.40 ± 1.01 mmHg; overall survival time of tumor-bearing mice compared to vehicle control [1]: could improve the overall survival time
(E)-2-(4-(3-((3-iodophenyl)amino)-3-oxoprop-1-en-1-yl)phenoxy)-2-methylpropanoic acid [19v]	1.71 ± 0.05	77.49 ± 2.11	32.25 ± 2.11 mmHg	K (Hill coefficient of the oxygen dissociation curve at 50% saturation) (mouse red blood cells): 2.23 ± 0.28
(E)-2-(4-(3-((4-bromophenyl)amino)-3-oxoprop-1-en-1-yl)phenoxy)-2-methylpropanoic acid [19u]	1.67 ± 0.09	63.15 ± 3.48	25.24 ± 3.48 mmHg	K (Hill coefficient of the oxygen dissociation curve at 50% saturation) (mouse red blood cells): 1.96 ± 0.17
(E)-2-methyl-2-(4-(3-((3-(methylthio)phenyl)amino)-3-oxoprop-1-en-1- yl)phenoxy) propanoic acid [19t]	2.13 ± 0.07	89.62 ± 2.02	44.38 mmHg and 44.38 ± 2.02 mmHg	K (Hill coefficient of the oxygen dissociation curve at 50% saturation) (mouse red blood cells): 2.43 ± 0.16; cytotoxicity (summary statement) (HEK293 cells; HEK293 (normal) cells): cytotoxic toward both cells with no selectivity; also recorded: cytotoxic to both normal and glioma cells at low micromolar levels without selectivity; cytotoxicity (HEK293 cells; HEK293 cells, concentration of 10 μm): showed cytotoxicity; TC50 (HEK293 cells; HEK293 cells, sodium salt stock): 165 µM; cytotoxicity (summary statement) (U87MG cells; U87MG (glioma) cells): cytotoxic toward both cells with no selectivity; also recorded: cytotoxic to both normal and glioma cells at low micromolar levels without selectivity; cytotoxicity (U87MG cells; U87MG cells, concentration of 10 μm): showed cytotoxicity; IC50 (U87MG cells; U87MG cells, sodium salt stock): 183 µM
